Assay results as given in US9278958B2, “Anti-cancer compounds” (KATHOLIEKE UNIVERSITEIT LEUVEN, priority 2012, dated 2016).
Like-named read-outs stand apart in the source and are kept apart here.

Experiments:
[1] = test system: PC-3 (UZ) prostate cancer cells; assay: Cytostatic assay, PC-3 (UZ); type: cell-based; conditions: Table 4
Summary of the method: (§1)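 Each cell line grows in the presence of compound for 48 h to 96 h, the duration chosen per line, at 37° C in a humid CO2-regulated incubator. Seeding is 5-7.5×10^4 cells per well, and final counts come from a Coulter counter.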

[2] = test system: PC3 (rega) prostate cancer cells; assay: Cytostatic assay, PC3 (rega); type: cell-based; conditions: Table 4
Summary of the method: as §1

[3] = test system: 293T embryonic kidney cells; assay: Cytostatic assay, 293T; type: cell-based; conditions: Homo sapiens, HEK-293T; Table 3
Summary of the method: as §1

[4] = test system: HL60, human leukemia cells; assay: Cytostatic assay, HL-60; type: cell-based; conditions: Table 2
Summary of the method: as §1

[5] = test system: BAEC aortic endothelial cells; assay: Cytostatic assay, BAEC; type: cell-based, bovine; conditions: Bos taurus, Table 3
Summary of the method: as §1

[6] = test system: Huh-7 hepatoma cells; assay: Cytostatic assay, Huh-7; type: cell-based; conditions: Homo sapiens, Table 4
Summary of the method: as §1

[7] = test system: 22Rv1 (UZ) prostate cancer cells; assay: Cytostatic assay, 22Rv1 (UZ); type: cell-based; conditions: Homo sapiens, Table 4
Summary of the method: as §1

[8] = test system: MCF-7 mammary carcinoma cells; assay: Cytostatic assay, MCF-7; type: cell-based; conditions: Homo sapiens, MCF7; Table 3
Summary of the method: as §1

[9] = test system: protein synthesis in Raji cells; assay: Antimetabolic activity assay, [4,5-3H]leucine incorporation (protein synthesis), Raji; type: cell-based; conditions: Homo sapiens, incorporation into TCA-insoluble material
[10] = test system: PLC/PRF/5 hepatoma cells; assay: Cytostatic assay, PLC/PRF/5; type: cell-based; conditions: Homo sapiens, Table 4
Summary of the method: as §1

[11] = test system: Daudi, human B-lymphoma cells; assay: Cytostatic assay, Daudi; type: cell-based; conditions: Table 2
Experimental: (§2) To each well of a 96-well microtiter plate were added 5-7.5×10^4 cells and a given amount of the test compound. The cells were allowed to proliferate for 48 h to 96 h (depending on the nature of the cell line) at 37° C. in a humidified CO2-controlled atmosphere. At the end of the incubation period, the cells were counted in a Coulter Counter (Coulter Electronics Ltd, Harpenden Herts, United Kingdom).

[12] = test system: broad variety of tumor cell lines; assay: Cytostatic assays, summary over the panel of cell lines (Tables 2-4); type: cell-based
Experimental: as §2

[13] = test system: protein synthesis in CEM cells; assay: Antimetabolic activity assay, [4,5-3H]leucine incorporation (protein synthesis), CEM; type: cell-based; conditions: Homo sapiens, CCRF-CEM, incorporation into TCA-insoluble material
Summary of the method: (§3)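 Read-out: acid-insoluble radioactivity on glass fiber filters. Setup: 10^5 CEM cells/well, 1 μCi labelled precursor, compound at varying levels (5-fold dilutions), 20 hrs, 37° C, humidified CO2 atmosphere.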

[14] = test system: HOS CD4+ osteosarcoma cells; assay: Cytostatic assay, HOS CD4+; type: cell-based; conditions: Homo sapiens; Table 3
Experimental: as §2

[15] = test system: MT-2 cells; assay: Cytostatic assay, MT-2; type: cell-based; conditions: Homo sapiens, MT2; Table 2
Summary of the method: as §1

[16] = test system: U87 CD4+/CXCR4+/CCR5+ glioma cells; assay: Cytostatic assay, U87 CD4+/CXCR4+/CCR5+; type: cell-based; conditions: Homo sapiens, Glioma cell; Table 3
Experimental: as §2

[17] = test system: Raji, human B-lymphoma cells; assay: Cytostatic assay, Raji; type: cell-based; conditions: Table 2
Summary of the method: as §1

[18] = test system: RNA synthesis in CEM cells; assay: Antimetabolic activity assay, [5-3H]uridine incorporation (RNA synthesis), CEM; type: cell-based; conditions: Homo sapiens, CCRF-CEM, incorporation into TCA-insoluble material
Summary of the method: as §3

[19] = test system: DNA synthesis in CEM cells; assay: Antimetabolic activity assay, [CH3-3H]dThd incorporation (DNA synthesis), CEM; type: cell-based; conditions: Homo sapiens, CCRF-CEM, incorporation into TCA-insoluble material
Summary of the method: as §3

[20] = test system: U937, human monocytic cells; assay: Cytostatic assay, U937; type: cell-based; conditions: U-937, Table 2
Summary of the method: as §1

[21] = test system: C8166 cells; assay: Cytostatic assay, C8166; type: cell-based; conditions: Homo sapiens, Table 2
Summary of the method: as §1

[22] = test system: Molt4/C8 cells; assay: Cytostatic assay, Molt4/C8; type: cell-based; conditions: Table 2
Summary of the method: as §1

[23] = test system: FM3A mammary carcinoma cells; assay: Cytostatic assay, FM3A; type: cell-based, murine; conditions: Mus musculus, Table 3
Summary of the method: as §1

[24] = test system: THP-1, human monocytic cells; assay: Cytostatic assay, THP-1; type: cell-based; conditions: Table 2
Summary of the method: as §1

[25] = test system: HEL embryonic lung fibroblast cells; assay: Cytostatic assay, HEL; type: cell-based; conditions: Homo sapiens, Table 3
Summary of the method: as §1

[26] = test system: HeLa cervix carcinoma cells; assay: Cytostatic assay, HeLa; type: cell-based, human; conditions: Homo sapiens; Table 3; read-out: Cytostatic activity (μM) Hela
Summary of the method: as §1

[27] = test system: Caki-2 kidney carcinoma cells; assay: Cytostatic assay, Caki-2; type: cell-based; conditions: Homo sapiens, Table 3
Summary of the method: as §1

[28] = test system: DU145 (UZ) prostate cancer cells; assay: Cytostatic assay, DU145 (UZ); type: cell-based; conditions: Homo sapiens, DU-145; Table 4
Summary of the method: as §1

[29] = test system: L1210 cells; assay: Cytostatic assay, L1210; type: cell-based; conditions: Mus musculus, Table 2
Summary of the method: as §1

[30] = test system: DNA synthesis in Raji cells; assay: Antimetabolic activity assay, [CH3-3H]dThd incorporation (DNA synthesis), Raji; type: cell-based; conditions: Homo sapiens, incorporation into TCA-insoluble material
[31] = test system: HepG2C3A hepatoma cells; assay: Cytostatic assay, HepG2C3A; type: cell-based; conditions: Homo sapiens, HepG2/C3A; Table 4
Summary of the method: as §1

[32] = test system: OST TK- osteosarcoma cells; assay: Cytostatic assay, OST TK-; type: cell-based; conditions: Homo sapiens; Table 3
Summary of the method: as §1

[33] = test system: U87 glioma cells; assay: Cytostatic assay, U87; type: cell-based; conditions: Homo sapiens, U-87 MG; Table 3
Summary of the method: as §1

[34] = test system: BPH-1 (UZ); assay: Cytostatic assay, BPH-1 (UZ); type: cell-based; conditions: Homo sapiens, Table 4
Summary of the method: as §1

[35] = test system: CEM cells; assay: Cytostatic assay, CEM; type: cell-based; conditions: Homo sapiens, CCRF-CEM
Summary of the method: as §1

[36] = test system: HUT-78 cells; assay: Cytostatic assay, HUT-78; type: cell-based; conditions: Homo sapiens, HuT78; Table 2
Summary of the method: as §1

[37] = test system: LNCaP (UZ) prostate cancer cells; assay: Cytostatic assay, LNCaP (UZ); type: cell-based; conditions: Homo sapiens, Table 4
Summary of the method: as §1

[38] = test system: HT29 colorectal carcinoma cells; assay: Cytostatic assay, HT29; type: cell-based; conditions: Homo sapiens, HT-29; Table 3
Summary of the method: as §1

[39] = test system: Sup T1 cells; assay: Cytostatic assay, Sup T1; type: cell-based; conditions: Homo sapiens, Table 2, read-out: Cytostatic activity (μM) Sup T 1
Summary of the method: as §1

[40] = test system: RNA synthesis in Raji cells; assay: Antimetabolic activity assay, [5-3H]uridine incorporation (RNA synthesis), Raji; type: cell-based; conditions: Homo sapiens, incorporation into TCA-insoluble material
[41] = test system: Caki-1 kidney carcinoma cells; assay: Cytostatic assay, Caki-1; type: cell-based; conditions: Homo sapiens, Table 3
Summary of the method: as §1

[42] = test system: PNT1A (UZ) prostate cells; assay: Cytostatic assay, PNT1A (UZ); type: cell-based; conditions: Homo sapiens, Table 4
Summary of the method: as §1

[43] = test system: MT-4 cells; assay: Cytostatic assay, MT-4; type: cell-based; conditions: Homo sapiens, MT4; Table 2
Summary of the method: as §1

Work on `CCOC(=O)c1cc(C#Cc2ccc(OC)cc2)sc1N` [TR530, 2-Amino-5-(4-methoxy-phenylethynyl)-thiophene-3-carboxylic acid ethyl ester] yielded an IC50 [1] of 0.96 ± 0.2 µM, an IC50 [2] of 0.29 ± 0.14 µM and an IC50 [3] of 37 ± 0.71 µM. It also gave an IC50 [4] of 6.2 ± 8.5 µM, an IC50 [5] of 16 ± 16 µM and an IC50 [6] of 1.5 ± 0.28 µM. It also gave an IC50 [7] of 6.3 ± 2.5 µM, an IC50 [8] of 42 ± 0.71 µM and an IC50 [9] of no less than 100 µM. It also gave an IC50 [10] of 41 ± 6.4 µM, an IC50 [11] of 43 ± 2.8 µM and an IC50 ([12]; Homo sapiens, HuT78, range for the seven compounds, MT-4 and HUT-78 cells, read-out: IC50 range, cytostatic activity against MT-4 and HUT-78 cells) of 8.5 to 60 µM. For the same molecule, the IC50 ([12]; range for the seven compounds against the 5 tumor cell lines, read-out: IC50 range, cytostatic activity against CEM, Molt4/C8, Sup T1, MT-2 and C8166 cells) was 0.22 to 3.4 µM, the IC50 [13] was 0.2 ± 0.07 µM and the IC50 [14] was 35 ± 7.1 µM. It also gave an IC50 [15] of 1.5 ± 0.21 µM, an IC50 [16] of 28 ± 3.5 µM and an IC50 [17] of 48 ± 1.4 µM. For the same molecule, the IC50 [18] was 0.66 ± 0.01 µM, the IC50 [19] was 2.3 ± 1 µM and the IC50 [20] was 41 ± 1.4 µM. For the same molecule, the IC50 [21] was 2.8 ± 0.14 µM, the IC50 [22] was 0.22 µM and the IC50 [23] was 40 ± 3.5 µM. The IC50 [24] was 44 ± 1.4 µM, the IC50 [25] was 35 ± 13 µM and the IC50 [26] was 42 ± 5.5 µM. The IC50 [27] was 88 ± 17 µM, the IC50 [28] was 9.3 ± 8.4 µM and the IC50 [29] was 40 ± 2 µM. For the same molecule, the IC50 [30] was no less than 100 µM, the IC50 [31] was 12 ± 2.1 µM and the IC50 [32] was 3.8 ± 1.7 µM. The IC50 [33] was 37 ± 2.8 µM, the IC50 [34] was 41 ± 1.4 µM and the IC50 ([35]; Table 1a, read-out: IC50 μM (CEM)) was 0.7 µM. It also gave an IC50 ([35]; Table 2, read-out: Cytostatic activity (μM) CEM) of 0.73 ± 0.62 µM, an IC50 [36] of 44 ± 6.4 µM and an IC50 [37] of 0.26 ± 0.081 µM. The IC50 [38] was 48 ± 23 µM, the IC50 [39] was 1.5 ± 0.14 µM and the IC50 [40] was 60 ± 57 µM. For the same molecule, the IC50 [41] was 5.3 ± 2.2 µM, the IC50 [42] was 38 ± 7.8 µM and the IC50 [43] was 22 ± 15 µM.
